# According to article PMC5224920, “Assessing the mechanism and therapeutic potential of modulators of the human Mediator complex-associated protein kinases” (eLife, 2016):
# Tested on: 12 single or co-culture in vitro tissue models of primary cells
# Test: Culture/co-culture cell model panel, extracellular biomarkers (DiscoveRx); for CCL2/MCP-1: reference of the scale not given here; for CXCL8/IL-8: reference of the scale not given here; for CXCL9/MIG: reference of the scale not given here; for IL-1alpha: reference of the scale not given here; for M-CSF: reference of the scale not given here; for PBMC Cytotoxicity: reference of the scale not given here; for SRB: reference of the scale not given here; for sTNF-alpha: reference of the scale not given here
# Type: cell-based, human
# Conditions: for B cell Proliferation / PBMC Cytotoxicity / Secreted IgG / sIL-2 / sIL-6 / sIL-17A / sIL-17F / sTNF-alpha: BT
# [1] = HDF3CGF stimulated fibroblasts, 1.00E0 nM
# [2] = HDF3CGF stimulated fibroblasts, 1.00E1 nM
# [3] = HDF3CGF stimulated fibroblasts, 1.00E2 nM
# [4] = HDF3CGF stimulated fibroblasts, 1.00E3 nM
compound,measurement,setting,value
CN1c2ccc(-c3cncc(Cl)c3N3CCC4(CC3)CNC(=O)O4)cc2CS1(=O)=O [CMPD2],SRB,"BENo, 1.00E3 nM",0.003
same,tPA,"BENo, 1.00E3 nM",0.049
same,uPA,"BENo, 1.00E3 nM",0.021
same,CCL26/Eotaxin-3,"BENo, 1.00E4 nM",0.048
same,CD54/ICAM-1,"BENo, 1.00E4 nM",-0.033
same,CD87/uPAR,"BENo, 1.00E4 nM",0.057
same,CXCL8/IL-8,"BENo, 1.00E4 nM",0.016
same,CXCL9/MIG,"BENo, 1.00E4 nM",0.075
same,CXCL10/IP-10,"BENo, 1.00E4 nM",0.073
same,CXCL11/I-TAC,"BENo, 1.00E4 nM",0.025
same,EGFR,"BENo, 1.00E4 nM",0.043
same,HLA-DR,"BENo, 1.00E4 nM",0.040
same,IL-1alpha,"BENo, 1.00E4 nM",-0.020
same,Keratin 8/18,"BENo, 1.00E4 nM",0.022
same,MMP-1,"BENo, 1.00E4 nM",0.039
same,MMP-9,"BENo, 1.00E4 nM",0.031
same,PAI-I,"BENo, 1.00E4 nM",-0.100
same,SRB,"BENo, 1.00E4 nM",0.001
same,tPA,"BENo, 1.00E4 nM",0.040
same,uPA,"BENo, 1.00E4 nM",-0.00475
same,CCL2/MCP-1,"BF4T, 1.00E0 nM",0.022
same,CCL26/Eotaxin-3,"BF4T, 1.00E0 nM",-0.032
same,CD54/ICAM-1,"BF4T, 1.00E0 nM",-0.00361
same,CD90,"BF4T, 1.00E0 nM",-0.036
same,CD106/VCAM-1,"BF4T, 1.00E0 nM",0.043
same,CXCL8/IL-8,"BF4T, 1.00E0 nM",0.040
same,IL-1alpha,"BF4T, 1.00E0 nM",0.007
same,Keratin 8/18,"BF4T, 1.00E0 nM",-0.001
same,MMP-1,"BF4T, 1.00E0 nM",0.030
same,MMP-3,"BF4T, 1.00E0 nM",0.082
same,MMP-9,"BF4T, 1.00E0 nM",0.039
same,PAI-I,"BF4T, 1.00E0 nM",-0.008
same,SRB,"BF4T, 1.00E0 nM",0.004
same,tPA,"BF4T, 1.00E0 nM",0.051
same,uPA,"BF4T, 1.00E0 nM",0.046
same,CCL2/MCP-1,"BF4T, 1.00E1 nM",-0.011
same,CCL26/Eotaxin-3,"BF4T, 1.00E1 nM",-0.107
same,CD54/ICAM-1,"BF4T, 1.00E1 nM",-0.027
same,CD90,"BF4T, 1.00E1 nM",-0.009
same,CD106/VCAM-1,"BF4T, 1.00E1 nM",0.033
same,CXCL8/IL-8,"BF4T, 1.00E1 nM",0.048
same,IL-1alpha,"BF4T, 1.00E1 nM",0.020
same,Keratin 8/18,"BF4T, 1.00E1 nM",-0.009
same,MMP-1,"BF4T, 1.00E1 nM",0.022
same,MMP-3,"BF4T, 1.00E1 nM",0.075
same,MMP-9,"BF4T, 1.00E1 nM",0.012
same,PAI-I,"BF4T, 1.00E1 nM",0.023
same,SRB,"BF4T, 1.00E1 nM",-0.00108
same,tPA,"BF4T, 1.00E1 nM",0.047
same,uPA,"BF4T, 1.00E1 nM",0.034
same,CCL2/MCP-1,"BF4T, 1.00E2 nM",-0.025
same,CCL26/Eotaxin-3,"BF4T, 1.00E2 nM",-0.086
same,CD54/ICAM-1,"BF4T, 1.00E2 nM",-0.020
same,CD90,"BF4T, 1.00E2 nM",0.002
same,CD106/VCAM-1,"BF4T, 1.00E2 nM",0.042
same,CXCL8/IL-8,"BF4T, 1.00E2 nM",0.050
same,IL-1alpha,"BF4T, 1.00E2 nM",0.00136
same,Keratin 8/18,"BF4T, 1.00E2 nM",0.009
same,MMP-1,"BF4T, 1.00E2 nM",0.008
same,MMP-3,"BF4T, 1.00E2 nM",0.053
same,MMP-9,"BF4T, 1.00E2 nM",0.008
same,PAI-I,"BF4T, 1.00E2 nM",0.039
same,SRB,"BF4T, 1.00E2 nM",4.82e-5
same,tPA,"BF4T, 1.00E2 nM",0.063
same,uPA,"BF4T, 1.00E2 nM",0.022
same,CCL2/MCP-1,"BF4T, 1.00E3 nM",-0.016
same,CCL26/Eotaxin-3,"BF4T, 1.00E3 nM",-0.102
same,CD54/ICAM-1,"BF4T, 1.00E3 nM",-0.022
same,CD90,"BF4T, 1.00E3 nM",-0.000476
same,CD106/VCAM-1,"BF4T, 1.00E3 nM",0.044
same,CXCL8/IL-8,"BF4T, 1.00E3 nM",0.047
same,IL-1alpha,"BF4T, 1.00E3 nM",-0.00456
same,Keratin 8/18,"BF4T, 1.00E3 nM",0.007
same,MMP-1,"BF4T, 1.00E3 nM",0.015
same,MMP-3,"BF4T, 1.00E3 nM",0.034
same,MMP-9,"BF4T, 1.00E3 nM",0.024
same,PAI-I,"BF4T, 1.00E3 nM",0.026
same,SRB,"BF4T, 1.00E3 nM",0.00277
same,tPA,"BF4T, 1.00E3 nM",0.071
same,uPA,"BF4T, 1.00E3 nM",0.023
same,CCL2/MCP-1,"BF4T, 1.00E4 nM",-0.034
same,CCL26/Eotaxin-3,"BF4T, 1.00E4 nM",-0.125
same,CD54/ICAM-1,"BF4T, 1.00E4 nM",-0.043
same,CD90,"BF4T, 1.00E4 nM",0.000654
same,CD106/VCAM-1,"BF4T, 1.00E4 nM",0.043
same,CXCL8/IL-8,"BF4T, 1.00E4 nM",0.030
same,IL-1alpha,"BF4T, 1.00E4 nM",-0.00143
same,Keratin 8/18,"BF4T, 1.00E4 nM",-0.023
same,MMP-1,"BF4T, 1.00E4 nM",0.010
same,MMP-3,"BF4T, 1.00E4 nM",0.027
same,MMP-9,"BF4T, 1.00E4 nM",-0.007
same,PAI-I,"BF4T, 1.00E4 nM",-0.013
same,SRB,"BF4T, 1.00E4 nM",0.000752
same,tPA,"BF4T, 1.00E4 nM",0.037
same,uPA,"BF4T, 1.00E4 nM",0.017
same,B cell Proliferation,1.00E0 nM,-0.010
same,PBMC Cytotoxicity,1.00E0 nM,0.032
same,Secreted IgG,1.00E0 nM,0.088
same,sIL-2,1.00E0 nM,0.154
same,sIL-6,1.00E0 nM,0.00536
same,sIL-17A,1.00E0 nM,-0.061
same,sIL-17F,1.00E0 nM,-0.213
same,sTNF-alpha,1.00E0 nM,0.097
same,B cell Proliferation,1.00E1 nM,-0.033
same,PBMC Cytotoxicity,1.00E1 nM,-0.030
same,Secreted IgG,1.00E1 nM,-0.163
same,sIL-2,1.00E1 nM,0.264
same,sIL-6,1.00E1 nM,0.057
same,sIL-17A,1.00E1 nM,0.173
same,sIL-17F,1.00E1 nM,-0.239
same,sTNF-alpha,1.00E1 nM,0.051
same,B cell Proliferation,1.00E2 nM,-0.057
same,PBMC Cytotoxicity,1.00E2 nM,-0.030
same,Secreted IgG,1.00E2 nM,-0.186
same,sIL-2,1.00E2 nM,0.109
same,sIL-6,1.00E2 nM,0.035
same,sIL-17A,1.00E2 nM,0.214
same,sIL-17F,1.00E2 nM,-0.485
same,sTNF-alpha,1.00E2 nM,0.059
same,B cell Proliferation,1.00E3 nM,-0.027
same,PBMC Cytotoxicity,1.00E3 nM,-0.033
same,Secreted IgG,1.00E3 nM,0.074
same,sIL-2,1.00E3 nM,0.068
same,sIL-6,1.00E3 nM,0.046
same,sIL-17A,1.00E3 nM,0.216
same,sIL-17F,1.00E3 nM,-0.463
same,sTNF-alpha,1.00E3 nM,0.076
same,B cell Proliferation,1.00E4 nM,-0.077
same,PBMC Cytotoxicity,1.00E4 nM,-0.046
same,Secreted IgG,1.00E4 nM,-0.114
same,sIL-2,1.00E4 nM,-0.00739
same,sIL-6,1.00E4 nM,-0.075
same,sIL-17A,1.00E4 nM,0.256
same,sIL-17F,1.00E4 nM,-0.594
same,sTNF-alpha,1.00E4 nM,0.009
same,CCL2/MCP-1,[1],-0.018
same,CD54/ICAM-1,[1],0.007
same,CD106/VCAM-1,[1],-0.010
same,CXCL8/IL-8,[1],-0.008
same,CXCL9/MIG,[1],-0.000757
same,CXCL10/IP-10,[1],0.037
same,CXCL11/I-TAC,[1],0.014
same,Collagen I,[1],0.035
same,Collagen III,[1],0.042
same,EGFR,[1],0.046
same,M-CSF,[1],-0.058
same,MMP-1,[1],0.070
same,PAI-I,[1],0.087
same,Proliferation_72hr,[1],-0.036
same,SRB,[1],0.000177
same,TIMP-1,[1],0.025
same,TIMP-2,[1],0.118
same,CCL2/MCP-1,[2],-0.070
same,CD54/ICAM-1,[2],-0.021
same,CD106/VCAM-1,[2],0.006
same,CXCL8/IL-8,[2],-0.045
same,CXCL9/MIG,[2],-0.030
same,CXCL10/IP-10,[2],0.050
same,CXCL11/I-TAC,[2],-0.011
same,Collagen I,[2],0.014
same,Collagen III,[2],0.091
same,EGFR,[2],-0.013
same,M-CSF,[2],-0.075
same,MMP-1,[2],0.050
same,PAI-I,[2],0.006
same,Proliferation_72hr,[2],-0.171
same,SRB,[2],-0.008
same,TIMP-1,[2],-0.010
same,TIMP-2,[2],0.117
same,CCL2/MCP-1,[3],-0.120
same,CD54/ICAM-1,[3],-0.051
same,CD106/VCAM-1,[3],0.051
same,CXCL8/IL-8,[3],-0.095
same,CXCL9/MIG,[3],-0.077
same,CXCL10/IP-10,[3],0.043
same,CXCL11/I-TAC,[3],-0.010
same,Collagen I,[3],0.00565
same,Collagen III,[3],0.086
same,EGFR,[3],-0.067
same,M-CSF,[3],-0.100
same,MMP-1,[3],0.024
same,PAI-I,[3],-0.00168
same,Proliferation_72hr,[3],-0.240
same,SRB,[3],0.000238
same,TIMP-1,[3],-0.059
same,TIMP-2,[3],0.121
same,CCL2/MCP-1,[4],-0.156
same,CD54/ICAM-1,[4],-0.066
same,CD106/VCAM-1,[4],0.036
same,CXCL8/IL-8,[4],-0.119
same,CXCL9/MIG,[4],-0.093
same,CXCL10/IP-10,[4],0.039
same,CXCL11/I-TAC,[4],-0.012
same,Collagen I,[4],0.040
same,Collagen III,[4],0.054
